Active and inactive are the calls of the source. The rule behind the calls is not given here. Where only a bound is given, the exact number is not on record here.

The species named for one data set is Homo sapiens. Kind of data set: Selectivity index, ratio of IC50 for human MCF-10A cells to IC50 for human Hs-578T cells.
Data set [1] is described as follows: Cytotoxicity against human MCF-10A cells assessed as inhibition of cell growth incubated for 72 hrs by SRB assay. It counts as toxicity, cell-based. (The SRB assay estimates cell density from bound dye.)
Data set [2] has as its system Hs-578T. Kind of data set: Cytotoxicity against human Hs-578T cells assessed as inhibition of cell growth incubated for 72 hrs by SRB assay. Type of data set: functional, cell-based.
In data set [3] the test system is Hs-578T. Kind of data set: Cytotoxicity against human Hs-578T cells assessed as reduction in cell proliferation at 0.5 times IC50 measured after 48 hrs by BrdU incorporation assay relative to control. Type of data set: functional. The arrangement: scale not given: the % may be the effect or the level left. (Uptake of a labelled nucleoside into DNA is a usual measure of proliferation.)

The test system of data set [4] is Hs-578T. In words: Induction of apoptosis in human Hs-578T cells assessed as increase in early apoptotic cells at IC50 measured after 24 to 48 hrs by Annexin V-FITC/PI staining based flow cytometry analysis. It counts as functional, cell-based. Conditions: time 24-48 hrs. In general terms: In flow cytometry, cells or beads pass a laser one at a time.
Data set [5] concerns Hs-578T. In words: Induction of apoptosis in human Hs-578T cells assessed as increase in BAD protein expression at IC50 measured after 24 to 48 hrs by Western blot analysis. Type of data set: functional, cell-based. The conditions noted are these: time 24-48 hrs.
Data set [6] concerns Hs-578T. Kind of data set: Induction of cell cycle arrest in human Hs-578T cells assessed as accumulation of cells at G2/M phase at IC50 measured after 24 hrs by RNase/PI staining based flow cytometry analysis. It counts as functional.
Data set [7] concerns Hs-578T. Kind of data set: Induction of apoptosis in human Hs-578T cells assessed as reduction in viable cells at IC50 measured after 24 to 48 hrs by Annexin V-FITC/PI staining based flow cytometry analysis. Type of data set: functional, cell-based. The conditions noted are these: time 24-48 hrs.
Data set [8] concerns Hs-578T. In words: Induction of apoptosis in human Hs-578T cells assessed as increase in cleaved PARP level at IC50 measured after 24 to 48 hrs by Western blot analysis. It counts as functional, cell-based. The conditions noted are these: time 24-48 hrs.
Data set [9] relates to Hs-578T. Kind of data set: Induction of apoptosis in human Hs-578T cells assessed as increase in caspase-8 protein expression at IC50 measured after 24 hrs by Western blot analysis. It counts as functional, cell-based.
Data set [10] has as its system Hs-578T. Kind of data set: Cytotoxicity against human Hs-578T cells assessed as cell viability at 10 uM incubated for 72 hrs by SRB assay relative to control. Type of data set: functional. Conditions: read-out: Activity.
The subject of data set [11] is MDA-MB-231. Kind of data set: Cytotoxicity against human MDA-MB-231 cells assessed as cell viability at 30 uM incubated for 72 hrs by SRB assay relative to control. It counts as functional. Conditions: read-out: Activity.
Data set [12] concerns Hs-578T. Kind of data set: Induction of apoptosis in human Hs-578T cells assessed as increase in caspase-9 protein expression at IC50 measured after 24 to 48 hrs by Western blot analysis. Conditions: time 24-48 hrs. It counts as functional, cell-based.
Data set [13] deals with Hs-578T. Kind of data set: Antitumor activity against human Hs-578T cells implanted in chick eggs assessed as tumor growth regression at 2 times IC50 administered starting from day 13 and measured 17 days post embryo development by stereomicroscopic analysis. It counts as functional, cell-based. The conditions noted are these: time 5.0 day.
Data set [14] has as its system Hs-578T. Kind of data set: Antitumor activity against human Hs-578T cells implanted in chick eggs assessed as regression in tumors' perimeter at 2 times IC50 administered starting from day 13 and measured 17 days post embryo development by stereomicroscopic analysis relative to control. It counts as functional. The conditions noted are these: time 5 day.
Data set [15] in a line: Toxicity in wild type Caenorhabditis elegans N2 assessed as drug tolerance at 0.0001 to 50 uM. Conditions: dose 0.0001-50 µM.
Data set [16] has as its system Hs-578T. In words: Induction of cell cycle arrest in human Hs-578T cells assessed as reduction in G0/G1 cell population at IC50 measured after 24 to 48 hrs by RNase/PI staining based flow cytometry analysis. It counts as functional. The conditions noted are these: time 24-48 hrs.
In data set [17] the test system is MCF7. Kind of data set: Cytotoxicity against human MCF7 cells assessed as cell viability at 10 uM incubated for 72 hrs by SRB assay relative to control. Type of data set: functional. Conditions: read-out: Activity.
The test system of data set [18] is Hs-578T. Kind of data set: Cytotoxicity against human Hs-578T cells assessed as reduction in cell proliferation at IC50 measured after 48 hrs by BrdU incorporation assay relative to control. Type of data set: functional. The arrangement: scale not given: the % may be the effect or the level left.
Data set [19] has as its system Hs-578T. In words: Induction of cell cycle arrest in human Hs-578T cells assessed as accumulation of cells at S phase at IC50 measured after 48 hrs by RNase/PI staining based flow cytometry analysis. It counts as functional.
The subject of data set [20] is Hs-578T. Kind of data set: Induction of apoptosis in human Hs-578T cells assessed as increase in late apoptotic cells at IC50 measured after 24 hrs by Annexin V-FITC/PI staining based flow cytometry analysis. Type of data set: functional, cell-based.
The test system of data set [21] is MDA-MB-231. Kind of data set: Cytotoxicity against human MDA-MB-231 cells assessed as cell viability at 10 uM incubated for 72 hrs by SRB assay relative to control. Type of data set: functional. The conditions noted are these: read-out: Activity.
Data set [22] relates to Hs-578T. Kind of data set: Cytotoxicity against human Hs-578T cells assessed as reduction in cell proliferation at IC50 measured after 24 hrs by BrdU incorporation assay relative to control. It counts as functional. More on the design: scale not given: the % may be the effect or the level left.
Data set [23] deals with MCF7. Kind of data set: Cytotoxicity against human MCF7 cells assessed as cell viability at 30 uM incubated for 72 hrs by SRB assay relative to control. Type of data set: functional. Conditions: read-out: Activity.
The subject of data set [24] is Hs-578T. In words: Induction of cell cycle arrest in human Hs-578T cells assessed as accumulation of cells at S phase at IC50 measured after 24 hrs by RNase/PI staining based flow cytometry analysis. Type of data set: functional.
Data set [25] has as its system Hs-578T. Kind of data set: Cytotoxicity against human Hs-578T cells assessed as reduction in cell viability at 10 uM incubated for 72 hrs by SRB assay relative to control. Type of data set: functional.
The subject of data set [26] is Hs-578T. Kind of data set: Induction of apoptosis in human Hs-578T cells assessed as increase in caspase-8 protein expression at IC50 measured after 48 hrs by Western blot analysis. Type of data set: functional, cell-based.
Data set [27] can be described thus: Toxicity in wild type Caenorhabditis elegans N2 assessed as effect on food consumption at 0.0001 to 50 uM measured daily for 7 days by food clearance assay. The conditions noted are these: 168 h, dose 0.0001-50 µM, time 7 day.
Data set [28] relates to Hs-578T. Kind of data set: Cytotoxicity against human Hs-578T cells assessed as cell viability at 30 uM incubated for 72 hrs by SRB assay relative to control. It counts as functional. The conditions noted are these: read-out: Activity.
Data set [29] has as its system Hs-578T. Kind of data set: Cytotoxicity against human Hs-578T cells assessed as reduction in cell proliferation at 0.5 times IC50 measured after 24 hrs by BrdU incorporation assay relative to control. Type of data set: functional. More on the design: scale not given: the % may be the effect or the level left.
Data set [30] has as its system Hs-578T. Kind of data set: Induction of apoptosis in human Hs-578T cells assessed as increase in BID protein expression at IC50 measured after 24 to 48 hrs by Western blot analysis. Type of data set: functional, cell-based. The conditions noted are these: time 24-48 hrs.
The subject of data set [31] is Hs-578T. In words: Induction of apoptosis in human Hs-578T cells assessed as increase in cleaved PARP level at IC50 measured after 48 hrs by Western blot analysis. It counts as functional, cell-based.

For orientation: IC50 means the concentration needed to halve the response being measured. In the case of `O=c1c(O)c(-c2ccc(O)c(O)c2)oc2cc(O)cc(O)c12` [QUERCETIN], the Ratio IC50 in the data set listed under Homo sapiens worked out at 0.82. For the same molecule, the half-maximal inhibitory concentration (IC50) at 72 h in data set [1] came to 9.32 µM. Further, the IC50 in the data set with Hs-578T [2] amounted to 50.5 µM.
With `O=c1[nH]c(-c2ccccc2)nc2c1Cc1cc(Br)ccc1O2`, the Activity entry in the data set on Hs-578T [3] was “<=50%”; in the data set with Hs-578T [14], 6.3%; in data set [15] it was “Non-Toxic”; in the data set with Hs-578T [18], “<=99%”; in the data set with Hs-578T [22], around 70%; in the data set with Hs-578T [25], around 50%. Besides, the figures for the Activity entry (in [27]; in the data set with Hs-578T [29]) were “Non-Toxic” and around 40%, respectively. The result in the data set with Hs-578T [4], with Hs-578T [5], in the data set with Hs-578T [7], with Hs-578T [8], in the data set on Hs-578T [9] and in the data set with Hs-578T [12] was Active. Besides, the result in the data set on Hs-578T [13], in the data set with Hs-578T [16], in the data set with Hs-578T [19], in the data set on Hs-578T [20] and in the data set with Hs-578T [30] was Active. Further, the outcome in the data set with Hs-578T [6], in the data set with Hs-578T [24] and with Hs-578T [26] was inactive. The viability at 10 µM in the data set on Hs-578T [10] was 40.2%; with MCF7 [17], 39.2%; in the data set with MDA-MB-231 [21], 62.4%. For the same molecule, the viability at 30 µM in the data set on MDA-MB-231 [11] worked out at 52.1%; with MCF7 [23], 36.7%; in the data set with Hs-578T [28] it was 21.1%. The Ratio IC50 in the data set filed under Homo sapiens was above 12.3. In addition, the IC50 at 72 h in data set [1] was above 60 µM. In addition, the half-maximal inhibitory concentration (IC50) in the data set with Hs-578T [2] stood at 4.5 µM.
For the molecule `COc1cccc(-c2nc3c(c(=O)[nH]2)Cc2cc(Cl)ccc2O3)c1`, the outcome in the data set on Hs-578T [5], in the data set on Hs-578T [9], in the data set on Hs-578T [12] and with Hs-578T [30] was Active. For the same molecule, the values for the viability at 10 µM with Hs-578T [10], with MCF7 [17] and with MDA-MB-231 [21] were 54.7%, 81.5% and 85.1%, respectively. Besides, the results for the viability at 30 µM with MDA-MB-231 [11], in the data set with MCF7 [23] and in the data set on Hs-578T [28] were 18.4%, 35.4% and 33.9%, respectively. For the same molecule, the Ratio IC50 in the data set listed under Homo sapiens is 0.06. Also, in data set [1], the concentration for half-maximal inhibition (IC50) at 72 h turned out to be 14 µM. The half-maximal inhibitory concentration (IC50) with Hs-578T [2] was 13.1 µM. Moreover, the Activity with Hs-578T [25] is reported as around 50%. Further, in the data set with Hs-578T [26], the outcome was inactive.
As for `COc1cccc2c1Oc1nc(-c3cc(C(C)(C)C)c(O)c(C(C)(C)C)c3)[nH]c(=O)c1C2`, the result with Hs-578T [5], in the data set with Hs-578T [9], in the data set on Hs-578T [12], with Hs-578T [31] and in the data set on Hs-578T [30] was Active. In addition, the values for the viability at 10 µM with Hs-578T [10], in the data set with MCF7 [17] and in the data set on MDA-MB-231 [21] were 30%, 59.8% and 68.1%, respectively. For the same molecule, the figures for the viability at 30 µM in the data set with MDA-MB-231 [11], with MCF7 [23] and in the data set on Hs-578T [28] were 58.6%, 43.5% and 18.7%, respectively. The Ratio IC50 in the data set listed under Homo sapiens is above 5.61. Further, the IC50 at 72 h in data set [1] is above 60 µM. Besides, in the data set with Hs-578T [2], the IC50 turned out to be 9.08 µM. In the data set with Hs-578T [25], the Activity is reported as around 50%. The result in the data set on Hs-578T [26] was inactive.
As for `COc1cccc2c1Oc1nc(-c3ccc(F)cc3)[nH]c(=O)c1C2`, the viability at 10 µM stood at 97.5% in the data set with Hs-578T [10], 88.8% with MCF7 [17] and 105% in the data set on MDA-MB-231 [21]. For the same molecule, the viability at 30 µM with MDA-MB-231 [11] is 97.8%; with MCF7 [23], 82.9%; with Hs-578T [28] it was 84.4%.
As to `COc1ccccc1-c1nc2c(c(=O)[nH]1)Cc1cccc(OC)c1O2`, the viability at 10 µM in the data set with Hs-578T [10] came to 86%; in the data set on MCF7 [17], 85.5%; with MDA-MB-231 [21] it was 82.9%. Moreover, the results for the viability at 30 µM with MDA-MB-231 [11], in the data set with MCF7 [23] and with Hs-578T [28] were 63.6%, 54.8% and 80.2%, respectively.
